Data set [1] has as its target Glucocorticoid (Homo sapiens, UniProt P04150). Put plainly: Pharmacological profile: receptor binding assay. The source says: (§1) Table 1 Pharmacological profile of SM-345431 (part 1) | column: IC50 (μm)
Data set [2] addresses Tumor Necrosis Factor (TNF), Non-selective. Put plainly: Pharmacological profile: receptor binding assay.
Description: as §1

For data set [3], the target named is Chemokine CCR1 (Homo sapiens, UniProt P32246). Put plainly: Pharmacological profile: receptor binding assay.
Chain of Chemokine CCR1 (P32246 whole entry): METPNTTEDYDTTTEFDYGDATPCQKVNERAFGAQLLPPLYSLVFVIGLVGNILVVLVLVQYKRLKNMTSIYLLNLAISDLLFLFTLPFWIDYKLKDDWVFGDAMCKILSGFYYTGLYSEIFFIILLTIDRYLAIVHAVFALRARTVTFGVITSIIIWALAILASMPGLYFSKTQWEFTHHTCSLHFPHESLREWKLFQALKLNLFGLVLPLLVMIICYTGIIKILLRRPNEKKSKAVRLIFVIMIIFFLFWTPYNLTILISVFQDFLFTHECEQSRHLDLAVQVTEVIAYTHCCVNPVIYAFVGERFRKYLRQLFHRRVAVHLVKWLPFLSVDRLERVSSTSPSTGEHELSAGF
Description: as §1

In data set [4] the target is Chemokine CXCR2 (IL-8B) (Homo sapiens, UniProt P25025). Description: Pharmacological profile: receptor binding assay.
Chain of Chemokine CXCR2 (IL-8B) (P25025 whole entry): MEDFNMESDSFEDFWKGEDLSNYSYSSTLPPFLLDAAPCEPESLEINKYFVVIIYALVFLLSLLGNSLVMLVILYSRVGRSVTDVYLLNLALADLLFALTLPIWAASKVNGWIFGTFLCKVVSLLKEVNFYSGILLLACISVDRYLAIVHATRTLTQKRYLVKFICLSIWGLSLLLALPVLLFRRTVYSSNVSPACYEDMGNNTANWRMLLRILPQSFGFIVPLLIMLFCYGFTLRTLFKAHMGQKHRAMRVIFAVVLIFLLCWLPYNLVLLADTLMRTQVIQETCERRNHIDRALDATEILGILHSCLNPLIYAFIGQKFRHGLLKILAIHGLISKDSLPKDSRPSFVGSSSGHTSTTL
Description: as §1

In data set [5] the target is Chemokine CCR4 (Homo sapiens, UniProt P51679). Description: Pharmacological profile: receptor binding assay.
Chain of Chemokine CCR4 (P51679 whole entry): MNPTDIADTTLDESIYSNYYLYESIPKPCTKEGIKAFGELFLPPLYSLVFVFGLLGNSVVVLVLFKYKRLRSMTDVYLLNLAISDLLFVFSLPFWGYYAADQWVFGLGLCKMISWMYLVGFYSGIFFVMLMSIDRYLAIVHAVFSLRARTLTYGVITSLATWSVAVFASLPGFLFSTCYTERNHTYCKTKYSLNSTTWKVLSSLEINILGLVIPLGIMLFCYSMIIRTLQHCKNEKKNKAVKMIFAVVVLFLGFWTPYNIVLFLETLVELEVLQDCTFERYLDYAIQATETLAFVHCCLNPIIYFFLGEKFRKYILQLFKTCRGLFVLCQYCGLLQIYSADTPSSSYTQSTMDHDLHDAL
Description: as §1

Data set [6] deals with Chemokine CCR2B (Homo sapiens, UniProt P41597). Put plainly: Pharmacological profile: receptor binding assay.
Chain of Chemokine CCR2B (P41597 1-360 isoform P41597-2): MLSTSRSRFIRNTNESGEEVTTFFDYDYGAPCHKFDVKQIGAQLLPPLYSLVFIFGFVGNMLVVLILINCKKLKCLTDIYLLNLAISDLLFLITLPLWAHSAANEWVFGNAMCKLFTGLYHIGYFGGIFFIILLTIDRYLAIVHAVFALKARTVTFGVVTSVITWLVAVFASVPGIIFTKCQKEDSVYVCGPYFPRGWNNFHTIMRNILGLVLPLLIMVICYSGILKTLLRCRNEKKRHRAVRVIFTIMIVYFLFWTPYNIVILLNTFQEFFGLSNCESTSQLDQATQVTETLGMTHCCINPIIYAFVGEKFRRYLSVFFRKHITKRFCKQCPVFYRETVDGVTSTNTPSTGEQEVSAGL
Description: as §1

Data set [7] deals with Chemokine CCR5 (Homo sapiens, UniProt P51681). Description: Pharmacological profile: receptor binding assay.
Chain of Chemokine CCR5 (P51681 whole entry): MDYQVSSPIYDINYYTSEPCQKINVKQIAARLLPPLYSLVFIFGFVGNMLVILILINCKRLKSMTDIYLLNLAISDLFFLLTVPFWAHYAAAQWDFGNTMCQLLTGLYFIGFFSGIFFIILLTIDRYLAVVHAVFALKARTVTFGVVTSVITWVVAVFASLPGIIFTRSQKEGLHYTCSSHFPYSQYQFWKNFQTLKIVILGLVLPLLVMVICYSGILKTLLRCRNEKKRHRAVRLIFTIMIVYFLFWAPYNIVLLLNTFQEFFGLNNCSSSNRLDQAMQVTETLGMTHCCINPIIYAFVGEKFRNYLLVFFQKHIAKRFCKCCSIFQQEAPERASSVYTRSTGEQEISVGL
Description: as §1

The target of data set [8] is T1, semaphorin3A (Homo sapiens, UniProt Q14563).
T1 sequence (Q14563 21-771): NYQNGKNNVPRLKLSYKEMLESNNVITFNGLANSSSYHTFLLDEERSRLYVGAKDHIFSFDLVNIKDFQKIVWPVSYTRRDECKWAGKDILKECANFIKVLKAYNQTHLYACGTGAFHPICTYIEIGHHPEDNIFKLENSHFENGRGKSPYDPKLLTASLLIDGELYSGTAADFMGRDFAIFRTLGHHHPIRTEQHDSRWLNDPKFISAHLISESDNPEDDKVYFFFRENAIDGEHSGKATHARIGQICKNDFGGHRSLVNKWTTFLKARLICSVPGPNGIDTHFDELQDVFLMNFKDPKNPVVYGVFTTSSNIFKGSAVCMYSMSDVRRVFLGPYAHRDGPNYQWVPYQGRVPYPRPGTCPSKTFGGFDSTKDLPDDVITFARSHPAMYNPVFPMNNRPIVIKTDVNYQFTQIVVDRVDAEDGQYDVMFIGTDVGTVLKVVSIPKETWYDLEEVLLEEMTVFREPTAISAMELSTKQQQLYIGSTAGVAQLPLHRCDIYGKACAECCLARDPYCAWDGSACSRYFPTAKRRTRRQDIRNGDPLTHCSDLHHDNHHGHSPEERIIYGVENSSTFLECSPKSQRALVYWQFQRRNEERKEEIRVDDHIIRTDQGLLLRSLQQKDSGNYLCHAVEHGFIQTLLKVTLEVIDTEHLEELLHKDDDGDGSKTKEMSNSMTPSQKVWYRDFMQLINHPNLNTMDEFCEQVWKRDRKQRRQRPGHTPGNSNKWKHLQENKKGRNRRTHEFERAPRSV
Put plainly: Collagen co-culture assay (E8 chick DRGs and semaphorin3A-expressing COS7 cell aggregates). The arrangement: expressed in transfected cells; host or cells: COS7. As to conditions: chick embryonic DRG explants co-cultured with semaphorin3A-COS in collagen gel. It counts as cell-based. As for the experimental part: The growth cone collapse assay and collagen co-culture experiments were performed as previously described. To examine the effects of SM-345431-silicone, small pieces (2 × 1 × 0.3 mm; approximately 1 mg containing 1 μg of SM-345431) of the SM-345431-silicone or control-silicone were placed in a collagen gel adjacent to E8 chick DRGs and COS7 cell aggregates, as shown in Figure 1C.

Data set [9] in a line: Stability in a silicone sheet. The class given is physicochemical. The following applies: compared with SM-216289.

Chain of Glucocorticoid (P04150 whole entry): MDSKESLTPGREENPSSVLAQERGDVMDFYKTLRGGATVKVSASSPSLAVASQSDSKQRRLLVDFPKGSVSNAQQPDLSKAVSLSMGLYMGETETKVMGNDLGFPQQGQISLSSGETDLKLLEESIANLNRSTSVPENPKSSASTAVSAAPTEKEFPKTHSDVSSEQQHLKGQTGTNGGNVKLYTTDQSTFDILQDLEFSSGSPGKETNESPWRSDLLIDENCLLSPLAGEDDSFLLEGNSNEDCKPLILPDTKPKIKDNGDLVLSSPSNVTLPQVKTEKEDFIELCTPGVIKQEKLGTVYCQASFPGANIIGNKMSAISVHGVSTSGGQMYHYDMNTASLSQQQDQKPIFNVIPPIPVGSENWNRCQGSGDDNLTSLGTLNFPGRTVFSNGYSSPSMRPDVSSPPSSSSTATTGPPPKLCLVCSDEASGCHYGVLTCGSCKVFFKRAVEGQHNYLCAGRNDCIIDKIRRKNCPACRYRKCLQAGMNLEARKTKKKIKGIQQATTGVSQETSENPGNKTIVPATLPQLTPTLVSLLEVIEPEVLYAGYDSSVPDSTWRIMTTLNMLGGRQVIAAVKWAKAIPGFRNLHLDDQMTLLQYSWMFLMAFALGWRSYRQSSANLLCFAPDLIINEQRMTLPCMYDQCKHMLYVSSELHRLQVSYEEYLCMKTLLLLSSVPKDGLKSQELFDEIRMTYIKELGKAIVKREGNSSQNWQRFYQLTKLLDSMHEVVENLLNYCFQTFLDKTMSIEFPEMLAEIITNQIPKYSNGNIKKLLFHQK

In general, IC50 refers to the point on the concentration scale where inhibition reaches its midpoint. A low value points to greater potency. As to `CC(=O)c1cc2c(=O)c3c(C(=O)O)c(O)c(O)cc3oc2c(C(C)=O)c1-c1coc2cc(O)c(O)c(C(=O)O)c2c1=O` [SM-345431, Vinaxanthone], the IC50 in data set [1], in data set [2], in [3], in data set [4], in data set [5] and in [6] was over 10 µM throughout. For the same compound, the IC50 in [7] was over 10 µM. Moreover, in data set [8], the “block of the chemo-repulsive effects of semaphorin3A on DRG neurites” value is “chemo-repulsive effects of semaphorin3A were blocked by SM-345431 in a dose-dependent manner”. Besides, the “stability in a silicone sheet” value in data set [9] is “better stability in a silicone sheet than SM-216289”.

The record behind these values is article PMC4008261, “Rewiring of regenerated axons by combining treadmill training with semaphorin3A inhibition” (Molecular Brain, 2014).
